According to BindingDB's records for doi:10.1021/jm050559f (Wyeth Research, 2005):

What was measured:
[1] = biological target: T1, Vascular endothelial growth factor receptor 2 (Homo sapiens, UniProt P35968); assay: Inhibition of poly(Glu4-Tyr)peptide phosphorylation by recombinant VEGFR2 at 10 uM ATP and in presence of 5% mouse plasma
[2] = biological target: T1, Vascular endothelial growth factor receptor 2; assay: Inhibition of poly(Glu4-Tyr)peptide phosphorylation by recombinant VEGFR2 at 10 uM ATP
[3] = biological target: T1, Vascular endothelial growth factor receptor 2; assay: Inhibition of poly(Glu4-Tyr)peptide phosphorylation by recombinant VEGFR2 at 10 uM ATP and in presence of 100 uM glutathione

T1 sequence (P35968 whole entry): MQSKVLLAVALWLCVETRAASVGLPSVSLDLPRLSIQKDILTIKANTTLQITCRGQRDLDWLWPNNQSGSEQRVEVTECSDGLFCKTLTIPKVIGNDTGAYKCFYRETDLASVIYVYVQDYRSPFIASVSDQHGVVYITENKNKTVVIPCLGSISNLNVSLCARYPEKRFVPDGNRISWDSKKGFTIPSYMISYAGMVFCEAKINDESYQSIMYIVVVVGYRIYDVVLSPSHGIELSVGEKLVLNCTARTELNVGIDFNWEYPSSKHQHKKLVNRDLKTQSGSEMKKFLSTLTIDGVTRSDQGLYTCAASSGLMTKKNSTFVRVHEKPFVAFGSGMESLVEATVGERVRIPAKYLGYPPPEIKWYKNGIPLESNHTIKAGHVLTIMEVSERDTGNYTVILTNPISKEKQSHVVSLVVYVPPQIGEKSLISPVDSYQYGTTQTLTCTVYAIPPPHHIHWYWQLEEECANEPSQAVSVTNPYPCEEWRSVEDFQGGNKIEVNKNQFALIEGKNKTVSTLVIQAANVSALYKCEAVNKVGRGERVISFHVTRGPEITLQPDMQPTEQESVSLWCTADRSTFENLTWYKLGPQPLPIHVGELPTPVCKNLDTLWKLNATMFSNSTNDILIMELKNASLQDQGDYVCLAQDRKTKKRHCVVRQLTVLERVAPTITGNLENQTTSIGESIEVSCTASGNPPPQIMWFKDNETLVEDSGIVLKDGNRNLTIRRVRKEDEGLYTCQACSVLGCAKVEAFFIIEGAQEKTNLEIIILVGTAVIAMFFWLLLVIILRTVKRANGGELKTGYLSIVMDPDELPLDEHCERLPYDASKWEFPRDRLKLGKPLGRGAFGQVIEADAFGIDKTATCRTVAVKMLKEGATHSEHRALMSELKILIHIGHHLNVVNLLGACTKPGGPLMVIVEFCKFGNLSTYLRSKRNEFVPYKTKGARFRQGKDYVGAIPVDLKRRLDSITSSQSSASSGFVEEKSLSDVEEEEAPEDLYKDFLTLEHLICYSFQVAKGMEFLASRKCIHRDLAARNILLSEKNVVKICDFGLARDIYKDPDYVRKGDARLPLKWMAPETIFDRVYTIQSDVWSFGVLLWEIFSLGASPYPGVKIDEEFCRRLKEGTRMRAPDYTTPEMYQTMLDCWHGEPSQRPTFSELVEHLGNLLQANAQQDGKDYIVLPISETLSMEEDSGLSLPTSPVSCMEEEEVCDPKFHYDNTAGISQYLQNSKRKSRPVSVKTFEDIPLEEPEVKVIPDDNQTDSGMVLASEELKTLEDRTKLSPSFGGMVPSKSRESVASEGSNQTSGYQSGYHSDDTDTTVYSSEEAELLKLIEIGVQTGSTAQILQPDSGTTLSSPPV

IC50 [1]: > 1 µM
IC50 [2]: > 1 µM
IC50 [3]: > 1 µM
SMILES: COCCOc1cc2ncnc(N=C3C(=O)C(OC)=CC(=O)C3Sc3ccccn3)c2cc1OC (stereo not drawn) [5-methoxy-3-{[6-methoxy-7-(2-methoxyethoxy)quinazolin-4-yl]amino}-2-(pyridin-2-ylthio)benzo-1,4-quinone]
